Experimental data from PubChem BioAssay AID288 (DTP/NCI, 2004).
Values joined by “and” are separate entries in the source; they are usually repeats but may differ in a detail not shown here. Equal entries are not always repeated. Records with an inconclusive call do not appear.

Tested on: BDF1 mice, M5076 sarcoma s.c., survival/tumor T/C
Assay: NCI In Vivo Anticancer Drug Screen. Data for tumor model Sarcoma M5076 (subcutaneous) in B6D2F1 (BDF1) mice
Experimental: The antitumor activity of compounds was measured in mice bearing transplantable tumors. Survival or tumor size were measured and the results are expressed as the measurement made in the treated group (T) divided by the measurement made in the vehicle treated control group (C). The tumor model used in this assay is Sarcoma M5076 (subcutaneous) in B6D2F1 (BDF1) mice

SMILES: S=P(N1CC1)(N1CC1)N1CC1
- T/C (endpoint: median survival time, dose: 3.4 mg/kg/injection, schedule: Q01DX007 (ip), vehicle: saline, higher = longer survival): 100 % of control
- T/C (endpoint: median survival time, dose: 3.4 mg/kg/injection, schedule: Q02DX007 (ip), vehicle: saline, higher = longer survival): 105 % of control
- T/C (endpoint: median survival time, dose: 4.0 mg/kg/injection, schedule: Q04DX003 (ip), vehicle: saline, higher = longer survival): 101 % of control
- T/C (endpoint: median survival time, dose: 5.0 mg/kg/injection, schedule: Q01DX007 (ip), vehicle: saline, higher = longer survival): 105 % of control
- T/C (endpoint: median survival time, dose: 5.0 mg/kg/injection, schedule: Q02DX007 (ip), vehicle: saline, higher = longer survival): 101 % of control
- T/C (endpoint: median survival time, dose: 6.0 mg/kg/injection, schedule: Q04DX003 (ip), vehicle: saline, higher = longer survival): 100 % of control
- T/C (endpoint: median survival time, dose: 6.0 mg/kg/injection, schedule: Q07DX003 (ip), vehicle: saline, higher = longer survival): 99 % of control
- T/C (endpoint: median survival time, dose: 7.5 mg/kg/injection, schedule: Q01DX007 (ip), vehicle: saline, higher = longer survival): 106 % of control
- T/C (endpoint: median survival time, dose: 7.5 mg/kg/injection, schedule: Q02DX007 (ip), vehicle: saline, higher = longer survival): 117 % of control
- T/C (endpoint: median survival time, dose: 9.0 mg/kg/injection, schedule: Q04DX003 (ip), vehicle: saline, higher = longer survival): 107 % of control
- T/C (endpoint: median survival time, dose: 9.0 mg/kg/injection, schedule: Q07DX003 (ip), vehicle: saline, higher = longer survival): 108 % of control
- T/C (endpoint: median survival time, dose: 12.0 mg/kg/injection, schedule: Q07DX003 (ip), vehicle: saline, higher = longer survival): 111 % of control

SMILES: Cc1ncc([N+](=O)[O-])n1CCO
- T/C (endpoint: median survival time, dose: 750.0 mg/kg/injection, schedule: Q01DX001 (ip), vehicle: saline, higher = longer survival): 116 % of control
- T/C (endpoint: median survival time, dose: 1000.0 mg/kg/injection, schedule: Q01DX001 (ip), vehicle: saline with Tween-80, higher = longer survival): 105 % of control and 85 % of control
- T/C (endpoint: median survival time, dose: 1500.0 mg/kg/injection, schedule: Q01DX001 (ip), vehicle: saline, higher = longer survival): 89 % of control and 90 % of control
- T/C (endpoint: median survival time, dose: 2000.0 mg/kg/injection, schedule: Q01DX001 (ip), vehicle: saline with Tween-80, higher = longer survival): 91 % of control
- T/C (endpoint: median survival time, dose: 2000.0 mg/kg/injection, schedule: Q01DX001 (ip), vehicle: saline, higher = longer survival): 87 % of control (2×) and 89 % of control
- T/C (endpoint: median survival time, dose: 2500.0 mg/kg/injection, schedule: Q01DX001 (ip), vehicle: saline with Tween-80, higher = longer survival): 78 % of control

SMILES: COc1ccc(/C=N/NC(=O)C(=O)Nc2ccc(Cl)c([N+](=O)[O-])c2)cc1OC
- T/C (endpoint: median survival time, dose: 50.0 mg/kg/injection, schedule: Q01DX009 (ip), vehicle: saline with Tween-80, higher = longer survival): 97 % of control
- T/C (endpoint: median survival time, dose: 100.0 mg/kg/injection, schedule: Q01DX009 (ip), vehicle: saline with Tween-80, higher = longer survival): 88 % of control
- T/C (endpoint: median survival time, dose: 200.0 mg/kg/injection, schedule: Q01DX009 (ip), vehicle: saline with Tween-80, higher = longer survival): 97 % of control
- T/C (endpoint: median tumor weight (est.), dose: 50.0 mg/kg/injection, schedule: Q01DX009 (ip), vehicle: saline with Tween-80, higher = larger tumour): 96 % of control
- T/C (endpoint: median tumor weight (est.), dose: 100.0 mg/kg/injection, schedule: Q01DX009 (ip), vehicle: saline with Tween-80, higher = larger tumour): 90 % of control
- T/C (endpoint: median tumor weight (est.), dose: 200.0 mg/kg/injection, schedule: Q01DX009 (ip), vehicle: saline with Tween-80, higher = larger tumour): 86 % of control

SMILES: COC(=O)c1csc(C2OC(CO)C(O)C2O)n1 (stereo unspecified)
- T/C (endpoint: median survival time, dose: 50.0 mg/kg/injection, schedule: Q01DX009 (ip), vehicle: saline, higher = longer survival): 98 % of control
- T/C (endpoint: median survival time, dose: 100.0 mg/kg/injection, schedule: Q01DX009 (ip), vehicle: saline, higher = longer survival): 100 % of control
- T/C (endpoint: median survival time, dose: 200.0 mg/kg/injection, schedule: Q01DX009 (ip), vehicle: saline, higher = longer survival): 100 % of control
- T/C (endpoint: median tumor weight (est.), dose: 50.0 mg/kg/injection, schedule: Q01DX009 (ip), vehicle: saline, higher = larger tumour): 61 % of control
- T/C (endpoint: median tumor weight (est.), dose: 100.0 mg/kg/injection, schedule: Q01DX009 (ip), vehicle: saline, higher = larger tumour): 77 % of control
- T/C (endpoint: median tumor weight (est.), dose: 200.0 mg/kg/injection, schedule: Q01DX009 (ip), vehicle: saline, higher = larger tumour): 85 % of control

SMILES: Cc1c(N)nc([C@H](CC(N)=O)NC[C@H](N)C(N)=O)nc1C(=O)N[C@H](C(=O)N[C@H](C)[C@@H](O)[C@H](C)C(=O)N[C@H](C(=O)NCCc1nc(-c2nc(C(=O)NCCC[S+](C)C)cs2)cs1)[C@@H](C)O)C(OC1OC(CO)C(O)C(O)C1OC1OC(CO)C(O)C(OC(N)=O)C1O)c1cnc[nH]1 (stereo partly specified)
- T/C (endpoint: median survival time, dose: 1.6 mg/kg/injection, schedule: Q04DX009 (ip), vehicle: saline, higher = longer survival): 108 % of control
- T/C (endpoint: median survival time, dose: 3.2 mg/kg/injection, schedule: Q04DX009 (ip), vehicle: saline, higher = longer survival): 115 % of control

SMILES: O=C1N[C@H]2[C@H](O)[C@H](O)[C@@H](O)[C@H](O)[C@@H]2c2cc3c(c(O)c21)OCO3
- T/C (endpoint: median survival time, dose: 0.38 mg/kg/injection, schedule: Q01DX009 (ip), vehicle: saline + alcohol, higher = longer survival): 101 % of control
- T/C (endpoint: median survival time, dose: 0.75 mg/kg/injection, schedule: Q01DX009 (ip), vehicle: saline + Tween-80 + alcohol, higher = longer survival): 106 % of control
- T/C (endpoint: median survival time, dose: 0.75 mg/kg/injection, schedule: Q01DX009 (ip), vehicle: saline + alcohol, higher = longer survival): 89 % of control
- T/C (endpoint: median survival time, dose: 1.5 mg/kg/injection, schedule: Q01DX009 (ip), vehicle: saline + Tween-80 + alcohol, higher = longer survival): 111 % of control
- T/C (endpoint: median survival time, dose: 1.5 mg/kg/injection, schedule: Q01DX009 (ip), vehicle: saline + alcohol, higher = longer survival): 94 % of control
- T/C (endpoint: median survival time, dose: 3.0 mg/kg/injection, schedule: Q01DX009 (ip), vehicle: saline + alcohol, higher = longer survival): 120 % of control
- T/C (endpoint: median tumor weight (est.), dose: 0.38 mg/kg/injection, schedule: Q01DX009 (ip), vehicle: saline + alcohol, higher = larger tumour): 103 % of control
- T/C (endpoint: median tumor weight (est.), dose: 0.75 mg/kg/injection, schedule: Q01DX009 (ip), vehicle: saline + Tween-80 + alcohol, higher = larger tumour): 80 % of control
- T/C (endpoint: median tumor weight (est.), dose: 0.75 mg/kg/injection, schedule: Q01DX009 (ip), vehicle: saline + alcohol, higher = larger tumour): 96 % of control
- T/C (endpoint: median tumor weight (est.), dose: 1.5 mg/kg/injection, schedule: Q01DX009 (ip), vehicle: saline + Tween-80 + alcohol, higher = larger tumour): 49 % of control
- T/C (endpoint: median tumor weight (est.), dose: 1.5 mg/kg/injection, schedule: Q01DX009 (ip), vehicle: saline + alcohol, higher = larger tumour): 64 % of control
- T/C (endpoint: median tumor weight (est.), dose: 3.0 mg/kg/injection, schedule: Q01DX009 (ip), vehicle: saline + Tween-80 + alcohol, higher = larger tumour): 2 % of control
- T/C (endpoint: median tumor weight (est.), dose: 3.0 mg/kg/injection, schedule: Q01DX009 (ip), vehicle: saline + alcohol, higher = larger tumour): 27 % of control
- T/C (endpoint: median tumor weight (est.), dose: 6.0 mg/kg/injection, schedule: Q01DX009 (ip), vehicle: saline + alcohol, higher = larger tumour): 3 % of control

SMILES: O=C1c2ccccc2C(=O)c2c(NCCNCCO)ccc(O)c21
- T/C (endpoint: median survival time, dose: 12.5 mg/kg/injection, schedule: Q04DX003 (ip), vehicle: saline with Tween-80, higher = longer survival): 90 % of control
- T/C (endpoint: median survival time, dose: 25.0 mg/kg/injection, schedule: Q04DX003 (ip), vehicle: saline with Tween-80, higher = longer survival): 116 % of control
- T/C (endpoint: median survival time, dose: 50.0 mg/kg/injection, schedule: Q04DX003 (ip), vehicle: saline with Tween-80, higher = longer survival): 103 % of control
- T/C (endpoint: median survival time, dose: 100.0 mg/kg/injection, schedule: Q04DX003 (ip), vehicle: saline with Tween-80, higher = longer survival): 104 % of control and 107 % of control
- T/C (endpoint: median survival time, dose: 150.0 mg/kg/injection, schedule: Q04DX003 (ip), vehicle: saline with Tween-80, higher = longer survival): 122 % of control

SMILES: OC(C1CO1)C(O)C1CO1 (stereo unspecified)
- T/C (endpoint: mean tumor weight, dose: 1.0 mg/kg/injection, schedule: Q02DX011 (ip), vehicle: saline, higher = larger tumour): 58 % of control
- T/C (endpoint: mean tumor weight, dose: 2.0 mg/kg/injection, schedule: Q02DX011 (ip), vehicle: saline, higher = larger tumour): 10 % of control and 12 % of control
- T/C (endpoint: median survival time, dose: 2.0 mg/kg/injection, schedule: Q01DX009 (ip), vehicle: saline, higher = longer survival): 122 % of control
- T/C (endpoint: median tumor weight (est.), dose: 1.0 mg/kg/injection, schedule: Q02DX011 (ip), vehicle: saline, higher = larger tumour): 67 % of control
- T/C (endpoint: median tumor weight (est.), dose: 2.0 mg/kg/injection, schedule: Q01DX009 (ip), vehicle: saline, higher = larger tumour): 29 % of control
- T/C (endpoint: median tumor weight (est.), dose: 2.0 mg/kg/injection, schedule: Q02DX011 (ip), vehicle: saline, higher = larger tumour): 1 % of control and 8 % of control

SMILES: O=C(N/N=C\c1cc(Br)cc(Br)c1O)N/N=C/c1cc(Br)cc(Br)c1O
- T/C (endpoint: median survival time, dose: 200.0 mg/kg/injection, schedule: Q04DX003 (ip), vehicle: saline with Tween-80, higher = longer survival): 111 % of control
- T/C (endpoint: median survival time, dose: 400.0 mg/kg/injection, schedule: Q04DX003 (ip), vehicle: saline with Tween-80, higher = longer survival): 112 % of control
- T/C (endpoint: median survival time, dose: 800.0 mg/kg/injection, schedule: Q04DX003 (ip), vehicle: saline with Tween-80, higher = longer survival): 97 % of control

SMILES: CSC1SCC2C(=O)N(C)C(C(C)C)C(=O)OCC(NC(=O)c3cnc4ccccc4n3)C(=O)NC(C)C(=O)N(C)C1C(=O)N(C)C(C(C)C)C(=O)OCC(NC(=O)c1cnc3ccccc3n1)C(=O)NC(C)C(=O)N2C (stereo unspecified)
- T/C (endpoint: median survival time, dose: 0.06 mg/kg/injection, schedule: Q04DX003 (ip), vehicle: saline with Tween-80, higher = longer survival): 96 % of control
- T/C (endpoint: median survival time, dose: 0.12 mg/kg/injection, schedule: Q04DX003 (ip), vehicle: saline with Tween-80, higher = longer survival): 91 % of control

SMILES: COc1cccc2c1C(=O)c1c(O)c3c(c(O)c1C2=O)C[C@@](O)(C(C)=O)C[C@@H]3OC1CC(N)C(O)C(C)O1 (stereo partly specified)
- T/C (endpoint: median survival time, dose: 0.4 mg/kg/injection, schedule: Q02DX030 (ip), vehicle: saline, higher = longer survival): 95 % of control
- T/C (endpoint: median survival time, dose: 0.4 mg/kg/injection, schedule: Q04DX006 (ip), vehicle: saline, higher = longer survival): 106 % of control
- T/C (endpoint: median survival time, dose: 0.8 mg/kg/injection, schedule: Q02DX030 (ip), vehicle: saline, higher = longer survival): 122 % of control
- T/C (endpoint: median survival time, dose: 1.6 mg/kg/injection, schedule: Q02DX030 (ip), vehicle: saline, higher = longer survival): 104 % of control
